Laboratory results: patent US9629835B1, “Method for treating tau-associated diseases” (NATIONAL TAIWAN NORMAL UNIVERSITY, priority 2016, dated 2017)

Legend:
[1] = biological target: T1, Recombinant human GSK-3β (Homo sapiens, UniProt P49841); assay: GSK-3β kinase activity, ADP-Glo Kinase Assay; format: biochemical
T1 construct: purchased Promega V1991
Method: GSK-3β kinase activity was measured in the presence of the tested compounds (I) and (II) using ADP-Glo™ Kinase Assay system (Promega). Recombinant human GSK-3β (Product code V1991, Promega) was used as the enzyme source, and the GSK-3β substrate was derived from human muscle glycogen synthase 1 peptide ([…](pS)EDEEE) which corresponded to a region of glycogen synthase that was phosphorylated by GSK-3β. Reactions were performed at 30° C. for 30 minutes in the 25 μL mixture that contained 25 μM ATP, 0.2 mg/mL GSK-3β substrate, 1 ng of GSK-3β, and serial dilutions of compound (I), compound (II), or compound (III). Kinase activity data were measured as relative light units (RLU) directly correlated with the amount of ADP produced.
The IC50 values of compound (I), compound (II), and compound (III) were determined by using SigmaPLOT software. […] When the concentration of compound (I) and compound (II) were […] μM, the residual activities of GSK-3β of compounds (I) and (II) were 36.1±1.1%, and 90.9±6.6%, respectively.

[2] = tested on: ΔK280 tauRD-DsRed 293 cells; assay: DsRed fluorescence (tau aggregation) in Tet-On ΔK280 tauRD-DsRed 293 cells, high content analysis; format: cell-based, human; settings: for DsRed fluorescence intensity relative to untreated cells (100%): 10 μM, 8 h pre-treatment, doxycycline 3 days
Method: We used HEK-293 human cells expressing a DsRed-tagged proaggregation mutant (ΔK280) of the C-terminal repeat domain of tau (tauRD-Gln^244-Glu^372 of the longest tau^441 isoform). The recombinant tauRD-DsRed construct was under the control of a hybrid human cytomegalovirus (CMV)/TetO2 promoter that can be induced by adding doxycycline. The Tet-On ΔK280tauRD-DsRed293 cells were grown in medium containing blasticidin (5 μg/mL) and hygromycin (100 μg/mL) and were used for the following evaluation.
(§1) TauRD-DsRed 293 cells were plated into 96-well plates, grown for 24 h, and treated with 0.1, 1, 10 μM of congo red (a known tau aggregation inhibitor), compound (I), compound (II), and compound (III) (SB216763) for 8 h. Then doxycycline (Dox; 1 μg/mL) was added for 3 days and DsRed fluorescence was assessed using a high content analysis system (HCA) system (ImageXpressMICRO, Molecular Devices).
According to the fluorescence microscopy images of untreated cells, and cells treated with congo red, compound (I), compound (II), and SB216763, the quantification results are shown in FIG. 1 which were analyzed related to 100% fluorescence intensity of the untreated cells. […] Based on the results that described above, compound (I) and compound (II) have the ability to decrease tau-aggregation in tauRD-DsRed 293 cells (*p<0.05, **p<0.01).

[3] = Cytotoxicity in tauRD-DsRed 293 cells; format: cell-based; settings: human, 50% of viability
Method: as §1
Also, IC50 cytotoxicity of tauRD-DsRed 293 cells is shown in FIG. 2, wherein the standard line represents 50% of viability.

[4] = tested on: GSK-3β; assay: Western blot of total GSK-3β and phosphorylated GSK-3β (Ser9) in tauRD-DsRed SH-SY5Y cells; format: cell-based, human; settings: 10 μM
Method: We used human neuroblastoma cells (SH-SY5Y) expressing a DsRed-tagged proaggregation mutant (ΔK280) of the C-terminal repeat domain of tau (tauRD-Gln^244-Glu^372 of the longest tau^441 isoform). The recombinant tauRD-DsRed construct was under the control of a hybrid human cytomegalovirus (CMV)/TetO2 promoter that can be induced by adding doxycycline. The Tet-On ΔK280 tauRD-DsRed SH-SY5Y cells were grown in medium containing blasticidin (5 μg/mL) and hygromycin (100 μg/mL) and were then used for the following evaluation. […]
First, SH-SY5Y tauRD-DsRed cells were seeded in 6-well plates (1×10^5/well) in a medium containing all-trans retinoic acid ([…] Sigma) for inducing the neural differentiation. […] Next, immunoreactive bands were detected using horseradish peroxidase-conjugated goat anti-mouse, goat anti-rabbit, or donkey anti-goat IgG antibodies (1:5000; GeneTex) and chemiluminescent substrate (Millipore) for evaluating the expression levels thereof in cells.
The expression levels of total GSK-3β and phosphorylated GSK-3β are shown in FIG. 3 and the quantifications thereof are shown in FIG. 4 (*p<0.05, ***p<0.001). […]

[5] = tested on: mouse hippocampal primary culture cells; assay: Mouse hippocampal primary culture under tau toxicity induced by Wortmannin and GF 109203X; format: cell-based; settings: 1 μM, 12 hours, with 10 nM Wortmannin and GF 109203X
Method: The mouse hippocampal primary culture cells were isolated from the hippocampi of C57BL/6J mouse embryos at days 16-18. On days in vitro (DIV) 4 and 7, 2 μM of cytosine arabinoside was added to the culture medium to reduce the glial cell populations. On DIV 9, the cells were treated with 10 nM of Wortmannin (WT) and GF 109203X (GFX) to induce tau hyperphosphorylation to mimic an AD condition.
1 μM of compound (I) or compound (II) were then added to the cells at DIV 9. Cells were harvested 12 hours later for immunocytochemical staining with NeuN (for neuron) and MAP2 (for neurite morphology) antibodies.
The quantification of neuron numbers (NeuN relative expression levels), neurite outgrowth, and the relative number of neuron branches are shown in FIG. 7 to FIG. 9 (*, vs. control; #, vs. WT+GFX. * p<0.05; **/##p<0.01; ###p<0.001). […] The results indicated significant neuronal protective effects of compound (I) and compound (II).

T1 sequence (P49841 whole entry): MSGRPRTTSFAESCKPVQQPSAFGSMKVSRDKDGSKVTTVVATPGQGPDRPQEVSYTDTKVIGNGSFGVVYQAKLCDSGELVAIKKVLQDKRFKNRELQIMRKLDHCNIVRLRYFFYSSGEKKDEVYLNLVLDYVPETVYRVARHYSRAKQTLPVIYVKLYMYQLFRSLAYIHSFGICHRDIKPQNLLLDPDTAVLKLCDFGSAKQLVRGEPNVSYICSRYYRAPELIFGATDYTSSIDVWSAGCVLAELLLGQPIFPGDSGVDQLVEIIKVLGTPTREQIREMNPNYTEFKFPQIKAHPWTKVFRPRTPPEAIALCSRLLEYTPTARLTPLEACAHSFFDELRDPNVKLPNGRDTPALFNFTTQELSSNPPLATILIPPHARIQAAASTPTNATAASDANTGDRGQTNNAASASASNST

| SMILES | remaining activity at 0.018 µM ([1]; compound concentration 0.018 μM, read-out: residual activity of GSK-3β) | IC50 ([1]; recombinant human GSK-3β, 25 μM ATP, 30° C., 30 minutes) | DsRed fluorescence intensity relative to untreated cells (100%) [2] | IC50 [3] | total GSK-3β expression vs untreated cells [4] | neuronal protective effect (NeuN neuron number, neurite length, neurite branches) [5] | effect on tauRD-DsRed fluorescence ([2]; 0.1, 1, 10 μM) |
| --- | --- | --- | --- | --- | --- | --- | --- |
| Cc1ccc(-c2cc(-c3ccncc3)nc3ccccc23)cc1 [compound (I)] | 36.1 ± 1.1% | 0.0002 µM | 116% | 25.7 µM | remained about the same without significant changes | alleviate the reduction of neuronal survival rate, neurite length, and/or neurite branches | – |
| CN1CC(C2=C(c3ccc(Cl)cc3Cl)C(=O)NC2=O)c2ccccc21 (centres unmarked) [compound (III), reference compound] | – | – | – | – | – | – | no effect |
| Nc1c(/N=N/c2ccc(-c3ccc(/N=N/c4cc(S(=O)(=O)O)c5ccccc5c4N)cc3)cc2)cc(S(=O)(=O)O)c2ccccc12 [congo red] | – | – | 110% | – | – | – | – |
